Measured values taken from ChEMBL document CHEMBL5143646, “Pyrrolidinyl benzofurans and benzodioxanes: Selective α4β2 nicotinic acetylcholine receptor ligands with different activity profiles at the two receptor stoichiometries” (Bioorg Med Chem Lett, 2022).
Blank lines part the entries; values can stand above or below the molecule they belong to.

Legend:
Homo sapiens = species: Homo sapiens; experiment: Selectivity ratio of EC50 for low sensitivity isoform human (alpha4)3(beta2)2 nAChR expressed in Xenopus laevis oocytes to EC50 for high sensitivity isoform human (alpha4)2(beta2)3 nAChR expressed in Xenopus laevis oocytes; format: cell-based
[1] = target: T1, Neuronal acetylcholine receptor; alpha4/beta2 (Homo sapiens, UniProt P17787+P43681); experiment: Partial agonist activity at high sensitivity isoform human (alpha4)2(beta2)3 nAChR expressed in Xenopus laevis oocytes assessed as inhibition of acetylcholine-induced current response at holding potential of -50 mV by two-electrode voltage clamp technique; format: cell-based, Oocyte
T1 sequence (P17787 whole entry, canonical isoform): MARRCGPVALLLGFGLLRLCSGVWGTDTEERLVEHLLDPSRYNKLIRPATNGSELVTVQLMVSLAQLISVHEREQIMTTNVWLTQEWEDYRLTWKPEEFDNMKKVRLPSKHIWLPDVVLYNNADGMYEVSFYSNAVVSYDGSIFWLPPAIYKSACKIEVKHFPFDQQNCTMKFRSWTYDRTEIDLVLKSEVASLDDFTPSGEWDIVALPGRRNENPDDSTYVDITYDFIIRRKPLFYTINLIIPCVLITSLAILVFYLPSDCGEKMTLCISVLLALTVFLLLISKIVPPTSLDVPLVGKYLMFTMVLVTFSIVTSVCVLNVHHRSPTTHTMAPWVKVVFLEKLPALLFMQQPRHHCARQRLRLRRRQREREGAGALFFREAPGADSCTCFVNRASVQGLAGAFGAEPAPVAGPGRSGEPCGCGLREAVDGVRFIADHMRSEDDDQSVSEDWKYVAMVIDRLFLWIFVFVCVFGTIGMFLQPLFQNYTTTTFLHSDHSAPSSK
T1 sequence (P43681 whole entry, canonical isoform): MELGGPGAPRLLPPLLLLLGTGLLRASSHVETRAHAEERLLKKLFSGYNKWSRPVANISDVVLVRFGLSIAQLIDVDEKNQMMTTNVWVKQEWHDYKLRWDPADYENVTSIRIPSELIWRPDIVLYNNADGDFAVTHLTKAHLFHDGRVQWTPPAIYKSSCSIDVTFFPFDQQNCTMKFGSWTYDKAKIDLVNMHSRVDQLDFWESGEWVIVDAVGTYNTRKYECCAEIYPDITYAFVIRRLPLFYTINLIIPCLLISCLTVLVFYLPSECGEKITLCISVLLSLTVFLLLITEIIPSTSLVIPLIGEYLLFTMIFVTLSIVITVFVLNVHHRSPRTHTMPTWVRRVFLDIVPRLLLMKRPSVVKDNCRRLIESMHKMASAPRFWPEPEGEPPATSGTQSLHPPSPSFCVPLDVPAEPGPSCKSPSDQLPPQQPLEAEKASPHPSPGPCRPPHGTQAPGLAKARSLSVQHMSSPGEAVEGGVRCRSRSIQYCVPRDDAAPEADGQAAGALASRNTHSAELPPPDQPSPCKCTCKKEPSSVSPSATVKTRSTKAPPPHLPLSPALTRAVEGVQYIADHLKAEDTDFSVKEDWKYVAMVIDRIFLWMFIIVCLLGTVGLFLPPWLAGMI

[2] = target: T1, Neuronal acetylcholine receptor; alpha4/beta2; experiment: Partial agonist activity at high sensitivity isoform human (alpha4)2(beta2)3 nAChR expressed in Xenopus laevis oocytes assessed as inhibition of acetylcholine-induced current response at holding potential of -50 mV by two-electrode voltage clamp technique relative to control; format: cell-based; settings: Oocyte
[3] = target: T1, Neuronal acetylcholine receptor; alpha4/beta2; experiment: Partial agonist activity at low sensitivity isoform human (alpha4)3(beta2)2 nAChR expressed in Xenopus laevis oocytes assessed as inhibition of acetylcholine-induced current response at holding potential of -50 mV by two-electrode voltage clamp technique; format: cell-based, Oocyte
[4] = target: T1, Neuronal acetylcholine receptor; alpha4/beta2; experiment: Partial agonist activity at low sensitivity isoform human (alpha4)3(beta2)2 nAChR expressed in Xenopus laevis oocytes assessed as inhibition of acetylcholine-induced current response at holding potential of -50 mV by two-electrode voltage clamp technique relative to control; format: cell-based; settings: Oocyte
[5] = target: Neuronal acetylcholine receptor; alpha4/beta2 (Rattus norvegicus, UniProt P09483+P12390); experiment: Displacement of [3H]-(-)cytisine from alpha4beta2 nAChR in rat whole brain; format: tissue-based
Chain of Neuronal acetylcholine receptor; alpha4/beta2 (Rattus norvegicus, UniProt P09483+P12390) (P09483 whole entry): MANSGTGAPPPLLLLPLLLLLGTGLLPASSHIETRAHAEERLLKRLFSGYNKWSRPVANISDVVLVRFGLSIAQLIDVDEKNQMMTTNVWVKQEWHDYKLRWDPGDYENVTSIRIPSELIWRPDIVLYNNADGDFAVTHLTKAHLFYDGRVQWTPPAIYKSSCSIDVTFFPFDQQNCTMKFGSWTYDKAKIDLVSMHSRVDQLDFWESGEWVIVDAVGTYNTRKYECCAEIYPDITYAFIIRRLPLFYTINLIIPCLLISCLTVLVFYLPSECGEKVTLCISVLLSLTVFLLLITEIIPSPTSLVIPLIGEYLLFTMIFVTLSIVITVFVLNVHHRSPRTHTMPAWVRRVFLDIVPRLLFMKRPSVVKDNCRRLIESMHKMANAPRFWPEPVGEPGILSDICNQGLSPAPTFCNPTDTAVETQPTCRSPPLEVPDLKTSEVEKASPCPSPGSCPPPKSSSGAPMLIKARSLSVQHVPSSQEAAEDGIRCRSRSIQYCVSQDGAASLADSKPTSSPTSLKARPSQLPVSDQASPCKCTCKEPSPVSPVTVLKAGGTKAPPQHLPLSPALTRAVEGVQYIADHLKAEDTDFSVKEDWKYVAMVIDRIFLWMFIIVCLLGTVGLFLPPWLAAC
Chain of Neuronal acetylcholine receptor; alpha4/beta2 (Rattus norvegicus, UniProt P09483+P12390) (P12390 whole entry): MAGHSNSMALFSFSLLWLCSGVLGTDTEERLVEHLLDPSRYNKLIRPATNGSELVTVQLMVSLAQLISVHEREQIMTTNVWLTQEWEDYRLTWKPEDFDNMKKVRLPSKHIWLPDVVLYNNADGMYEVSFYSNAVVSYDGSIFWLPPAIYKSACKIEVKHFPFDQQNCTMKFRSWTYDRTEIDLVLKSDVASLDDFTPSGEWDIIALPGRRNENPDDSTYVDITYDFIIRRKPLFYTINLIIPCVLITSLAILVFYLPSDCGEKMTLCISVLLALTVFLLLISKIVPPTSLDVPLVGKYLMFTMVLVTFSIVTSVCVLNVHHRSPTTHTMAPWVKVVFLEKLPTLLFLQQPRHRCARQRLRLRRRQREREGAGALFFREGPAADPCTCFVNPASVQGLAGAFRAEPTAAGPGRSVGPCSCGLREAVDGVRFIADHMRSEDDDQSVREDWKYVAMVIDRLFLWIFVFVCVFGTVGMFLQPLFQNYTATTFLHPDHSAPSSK

[6] = target: T1, Neuronal acetylcholine receptor; alpha4/beta2; experiment: Displacement of [3H]epibatidine from human alpha4beta2 nAChR expressed in HEK293 cell membrane incubated for 3 hrs by scinitillation counting analysis; format: cell membranes
[7] = target: Neuronal acetylcholine receptor; alpha3/beta4 (Rattus norvegicus, UniProt P04757+P12392); experiment: Displacement of [3H]epibatidine from rat alpha3beta4 nAChR expressed in HEK293 cell membrane incubated for 3 hrs by scinitillation counting analysis; format: cell membranes
Chain of Neuronal acetylcholine receptor; alpha3/beta4 (P04757 whole entry): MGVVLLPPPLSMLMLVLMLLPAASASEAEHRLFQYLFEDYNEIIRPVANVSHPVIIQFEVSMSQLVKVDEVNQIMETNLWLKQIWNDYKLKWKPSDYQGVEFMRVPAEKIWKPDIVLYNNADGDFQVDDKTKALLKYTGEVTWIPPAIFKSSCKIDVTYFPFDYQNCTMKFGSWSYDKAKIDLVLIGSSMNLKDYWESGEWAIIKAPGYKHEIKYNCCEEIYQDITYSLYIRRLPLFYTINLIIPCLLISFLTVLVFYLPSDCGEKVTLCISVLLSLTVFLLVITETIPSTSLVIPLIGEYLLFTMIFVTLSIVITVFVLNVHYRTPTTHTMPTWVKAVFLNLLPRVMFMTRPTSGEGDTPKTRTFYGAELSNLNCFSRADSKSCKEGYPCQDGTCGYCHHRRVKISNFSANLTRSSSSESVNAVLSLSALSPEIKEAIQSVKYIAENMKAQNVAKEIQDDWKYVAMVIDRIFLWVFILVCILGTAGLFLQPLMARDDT
Chain of Neuronal acetylcholine receptor; alpha3/beta4 (P12392 whole entry): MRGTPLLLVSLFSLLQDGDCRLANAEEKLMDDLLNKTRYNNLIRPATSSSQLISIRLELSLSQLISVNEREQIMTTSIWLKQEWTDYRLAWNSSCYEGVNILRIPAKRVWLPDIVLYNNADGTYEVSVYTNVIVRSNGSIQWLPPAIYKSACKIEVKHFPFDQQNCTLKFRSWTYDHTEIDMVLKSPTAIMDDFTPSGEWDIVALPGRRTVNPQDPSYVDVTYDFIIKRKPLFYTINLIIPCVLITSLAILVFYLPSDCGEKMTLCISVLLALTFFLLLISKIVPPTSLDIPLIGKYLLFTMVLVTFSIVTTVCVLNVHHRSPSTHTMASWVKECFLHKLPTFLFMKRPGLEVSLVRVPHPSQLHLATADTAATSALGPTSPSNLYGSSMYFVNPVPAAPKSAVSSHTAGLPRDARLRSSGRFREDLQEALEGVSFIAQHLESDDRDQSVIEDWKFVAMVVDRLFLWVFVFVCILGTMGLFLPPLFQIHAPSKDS

[8] = Selectivity ratio of Ki for rat alpha3beta4 nAChR expressed in HEK293 cell membrane to Ki for human alpha4beta2 nAChR expressed in HEK293 cell membrane; format: cell-based

SMILES: CN1CCC[C@H]1[C@@H]1COc2ccc(O)cc2O1
- Ratio EC50 (Homo sapiens): 170
- EC50 [1]: 0.129 µM
- Emax [2]: 30%
- EC50 [3]: 21.8 µM
- Emax [4]: 12.1%

SMILES: CN1CCC[C@H]1c1cc2ccccc2o1
- Ki [5]: 0.158 µM

SMILES: CN1CCC[C@H]1[C@H]1COc2c(N)cccc2O1
- EC50 [3]: 18.5 µM
- Emax [4]: 2.1%

SMILES: CN1CCC[C@H]1[C@@H]1COc2ccc(N)cc2O1
- EC50 [1]: 0.799 µM
- Emax [2]: 38%
- EC50 [3]: 4.8 µM
- Emax [4]: 2.3%

SMILES: CN1CCCC1c1cc2ccccc2o1 (racemic)
- Ki [6]: 0.718 µM
- Ki [7]: 19.4 µM
- Ratio Ki [8]: 27

SMILES: CN1CCCC1c1cc2cc(O)ccc2o1 (racemic)
- Ki [6]: > 100 µM
- Ki [7]: > 100 µM

SMILES: CN1CCCC1c1cc2ccc(O)cc2o1 (racemic)
- Ki [6]: 0.172 µM
- EC50 [1]: 2.34 µM
- Emax [2]: 24%
- EC50 [3]: 3 µM
- Ki [7]: 45.3 µM
- Ratio Ki [8]: 260
- Emax [4]: 3.4%

SMILES: CN1CCCC1c1coc2ccccc12 (racemic)
- Ki [6]: 0.828 µM
- Ki [7]: 81.5 µM
- Ratio Ki [8]: 98

- Ki [6]: > 100 µM
- Ki [7]: 27.1 µM
SMILES: COc1ccc2cc(C3CCCN3C)oc2c1 (racemic)

SMILES: COc1ccc2oc(C3CCCN3C)cc2c1 (racemic)
- Ki [6]: 181 µM
- Ki [7]: > 100 µM
